This note sets out measurements from patent US20100075965A1, “PI3 KINASE INHIBITORS AND METHODS OF THEIR USE” (Novartis AG, priority 2006, published 2010).

The target of one assay is T1, PI3 kinase isoform alpha (Homo sapiens, UniProt P42336).
T1 construct: made in house
Kind of assay: PI3K scintillation proximity kinase assay, alpha isoform. In kind it is biochemical. As to the method:
(§1) Activity of compounds in Table 4, expressed as Ki the dissociation constant for inhibition binding, were determined using the following test procedures.
(§2) Baculovirus expressing different fragments of PI3Kγ fused to GST have been previously described by Stoyanova, S., Bulgarelli-Leva, G., Kirsch, C., Hanck, T., Klinger, R., Wetzker, R., Wymann, M. P. (1997) Lipid- and protein kinase activities of G protein-coupled PI 3-kinase gamma: structure-activity analysis and interactions with wortmannin. Biochem. J., 324:489. Residues 38-1102 of human PI3Kγ are subcloned into the BamH1 and EcoR1 sites of the transfer vector pAcG2T (Pharmingen) to create a GST-P13Kγ lacking the first 37 residues of PI3Kγ. To express the recombinant protein, Sf9 (Spodoptera frugiperda 9) insect cells are routinely maintained at densities between 3×10^5 and 3×10^6 cells/ml in serum containing TNMFH medium (Sigma). Sf9 cells, at a density of 2×10^6 are infected with human GST-PI3γΔ34 baculovirus at a multiplicity of infection (m.o.i.) of 1 for 72 hours. The infected cells are harvested by centrifugation at 1400 g for 4 minutes at 4° C. and the cell pellets are frozen at −80° C. Both Sf9 and Sf21 cells work equally well. […] Cell lysate (supernatant) is added (usually as 50 ml lysate to 1 ml GST resin in 50 ml tubes) and gently rotated on a mixer at 4° C. for 2-3 hours. The unbound flow through sample is collected by centrifugation at 1000 g for 5 minutes at 4° C. using a DENLEY™ centrifuge. The 1 ml GST resin containing bound material is transferred to a 15 ml FALCON™ centrifuge tube for subsequent washing and elution steps. Firstly a series of 3 cycles of washings (mixing by gentle inversion) is performed with 15 ml ice cold wash Buffer A (50 mM Tris-HCl pH 7.5, 1% Triton X-100, 2 mM DTT) interspersed with centrifugation at 1000 g for 5 minutes at 4° C. A final single wash step is performed with 15 ml ice cold wash Buffer B (50 mM Tris-HCl pH 7.5, 2 mM DTT) and then centrifuged at 1000 g for 5 minutes at 4° C. The washed GST resin is finally eluted with 4 cycles of 1 ml ice cold elution buffer (50 mM Tris-HCl pH 7.5, 10 mM reduced glutathione, 2 mM DTT, 150 mM NaCl, 1 mM NaF, 50% ethylene glycol and protease inhibitors) interspersed with centrifugation at 1000 g for 5 minutes at 4° C. Samples are aliquoted and stored at −20° C. The isoforms in Table 4 were similarly purified.
(§3) An in vitro kinase assay was established that measures the transfer of the terminal phosphate of adenosine triphosphate to phosphatidylinositol. The kinase reaction is performed in a white 96 well microtitre plate as a Scintillation Proximity Assay. […] The plate is incubated at room temperature for 60 minutes and the reaction terminated by the adding 150 μl of WGA-bead stop solution (40 mM Tris, 200 mM NaCl, 2 mM EGTA, 1.3 mM ethylene diamine tetraacetic acid (EDTA), 2.6 μM ATP and 0.5 mg of Wheat Germ Agglutinin-SPA beads (Amersham Biosciences) to each well. The plate is sealed, incubated at room temperature for 60 minutes, centrifuged at 1200 rpm and then counted for 1 minute using a scintillation counter. Total activity is determined by adding 10 μl of 5% dimethylsulphoxide (DMSO) and non-specific activity is determined by adding 10 μl 50 mM EDTA in place of the test compound.
A general note: Scintillation proximity formats need no separation of bound from free tracer.

For another assay, the target named is T2, PI3 kinase isoform delta (Homo sapiens, UniProt O00329).
T2 construct: made in house
T2 sequence (O00329 1-1044): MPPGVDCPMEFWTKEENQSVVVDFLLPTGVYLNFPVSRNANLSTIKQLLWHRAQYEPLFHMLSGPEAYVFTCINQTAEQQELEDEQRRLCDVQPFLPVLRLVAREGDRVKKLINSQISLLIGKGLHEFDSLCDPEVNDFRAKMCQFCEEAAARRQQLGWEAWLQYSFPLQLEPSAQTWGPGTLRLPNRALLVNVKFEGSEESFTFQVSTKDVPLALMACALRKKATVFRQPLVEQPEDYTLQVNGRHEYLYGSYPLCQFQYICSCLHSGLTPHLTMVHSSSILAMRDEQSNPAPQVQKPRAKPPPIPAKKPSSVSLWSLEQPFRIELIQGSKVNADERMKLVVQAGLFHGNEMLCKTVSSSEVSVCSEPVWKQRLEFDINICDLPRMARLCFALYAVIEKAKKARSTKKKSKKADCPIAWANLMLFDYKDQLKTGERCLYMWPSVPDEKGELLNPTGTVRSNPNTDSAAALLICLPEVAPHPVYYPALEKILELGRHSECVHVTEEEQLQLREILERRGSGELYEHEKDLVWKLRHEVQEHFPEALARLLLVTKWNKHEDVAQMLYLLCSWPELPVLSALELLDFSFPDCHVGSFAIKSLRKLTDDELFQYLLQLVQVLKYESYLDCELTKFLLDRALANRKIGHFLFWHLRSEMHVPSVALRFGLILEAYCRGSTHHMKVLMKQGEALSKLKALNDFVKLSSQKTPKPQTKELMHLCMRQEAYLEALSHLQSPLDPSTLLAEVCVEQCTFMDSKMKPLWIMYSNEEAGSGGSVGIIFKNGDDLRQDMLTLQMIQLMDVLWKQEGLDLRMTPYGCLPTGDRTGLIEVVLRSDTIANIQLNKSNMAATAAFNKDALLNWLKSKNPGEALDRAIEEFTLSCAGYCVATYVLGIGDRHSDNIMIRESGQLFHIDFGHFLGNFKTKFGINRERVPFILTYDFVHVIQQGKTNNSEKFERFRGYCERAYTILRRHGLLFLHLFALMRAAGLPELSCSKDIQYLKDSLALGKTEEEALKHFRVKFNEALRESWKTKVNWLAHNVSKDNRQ
Kind of assay: PI3K scintillation proximity kinase assay, delta isoform. It is filed as biochemical. Here is the method:
as §1, §2, §3

For the next assay, the target named is T3, PI3 kinase isoform beta (Homo sapiens, UniProt P42338).
T3 construct: made in house
T3 sequence (P42338 whole entry, canonical isoform): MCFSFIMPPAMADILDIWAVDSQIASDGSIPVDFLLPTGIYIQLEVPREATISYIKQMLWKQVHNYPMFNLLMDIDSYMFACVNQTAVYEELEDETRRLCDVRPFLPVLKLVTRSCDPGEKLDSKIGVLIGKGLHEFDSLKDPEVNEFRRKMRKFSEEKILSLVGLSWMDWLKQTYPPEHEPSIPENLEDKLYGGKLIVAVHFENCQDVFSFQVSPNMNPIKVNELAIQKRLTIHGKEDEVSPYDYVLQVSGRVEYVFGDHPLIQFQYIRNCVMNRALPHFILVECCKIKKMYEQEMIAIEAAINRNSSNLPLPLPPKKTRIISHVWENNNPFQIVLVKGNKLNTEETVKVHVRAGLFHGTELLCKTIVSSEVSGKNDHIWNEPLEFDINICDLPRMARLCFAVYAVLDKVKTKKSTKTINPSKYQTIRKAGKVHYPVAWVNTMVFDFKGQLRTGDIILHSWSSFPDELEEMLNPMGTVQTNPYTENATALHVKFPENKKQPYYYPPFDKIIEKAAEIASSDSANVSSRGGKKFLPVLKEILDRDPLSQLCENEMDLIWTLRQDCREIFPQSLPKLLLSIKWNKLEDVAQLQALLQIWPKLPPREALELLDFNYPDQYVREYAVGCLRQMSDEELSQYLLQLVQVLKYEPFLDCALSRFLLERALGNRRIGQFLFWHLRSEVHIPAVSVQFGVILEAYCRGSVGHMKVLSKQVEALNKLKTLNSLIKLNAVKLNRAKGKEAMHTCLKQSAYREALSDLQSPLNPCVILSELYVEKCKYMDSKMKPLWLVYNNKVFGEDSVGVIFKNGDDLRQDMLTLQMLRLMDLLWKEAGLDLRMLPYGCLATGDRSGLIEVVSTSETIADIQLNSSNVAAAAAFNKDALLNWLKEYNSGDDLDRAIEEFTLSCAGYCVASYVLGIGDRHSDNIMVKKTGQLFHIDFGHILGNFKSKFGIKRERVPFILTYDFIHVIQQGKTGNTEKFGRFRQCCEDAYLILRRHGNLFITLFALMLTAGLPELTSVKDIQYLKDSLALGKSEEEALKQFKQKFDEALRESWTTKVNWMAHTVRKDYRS
Kind of assay: PI3K scintillation proximity kinase assay, beta isoform. In kind it is biochemical. As to the method:
as §1, §2, §3

The next assay concerns the target T4, human PI3Kγ (GST-p110γ) (Homo sapiens, UniProt P48736).
T4 construct: Residues 38-1102 of human PI3Kγ are subcloned into the BamH1 and EcoR1 sites of the transfer vector pAcG2T; made in house; host or cells: Sf9 (Spodoptera frugiperda) insect cells, baculovirus
Kind of assay: PI3K scintillation proximity kinase assay, gamma isoform. It is filed as biochemical. The following applies: PI3 kinase isoform gamma. As to the method: as §1, §2, §3

For a further assay, the system named is A2780 cells. Kind of assay: Viability assay in A2780 (Cell Titer Glo). Particulars: Homo sapiens; A2780 cells; read-out: A2780 Cell prolif. EC50. It is filed as cell-based, human. The gist of the method: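 A2780 cells (1,000/well, DMEM + 10% FBS) were exposed to 3-fold serial dilutions of compound for 72 hrs at 37° C, 5% CO2. Viable cells were read by Cell Titer Glo luminescence, in duplicate, and EC50 values were derived from the curves.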

The next assay deals with PI3 K Alpha (Homo sapiens, UniProt P42336). Kind of assay: PI3 kinase phosphorylation assays (homogenous solution phase, one step solid phase, ATP depletion/KinaseGlo). In kind it is biochemical. The following applies: read-out: PI3K Alpha IC50. In general terms: Kinase-Glo reads ATP consumption through a luciferase reaction.
Chain of PI3 K Alpha (P42336 whole entry): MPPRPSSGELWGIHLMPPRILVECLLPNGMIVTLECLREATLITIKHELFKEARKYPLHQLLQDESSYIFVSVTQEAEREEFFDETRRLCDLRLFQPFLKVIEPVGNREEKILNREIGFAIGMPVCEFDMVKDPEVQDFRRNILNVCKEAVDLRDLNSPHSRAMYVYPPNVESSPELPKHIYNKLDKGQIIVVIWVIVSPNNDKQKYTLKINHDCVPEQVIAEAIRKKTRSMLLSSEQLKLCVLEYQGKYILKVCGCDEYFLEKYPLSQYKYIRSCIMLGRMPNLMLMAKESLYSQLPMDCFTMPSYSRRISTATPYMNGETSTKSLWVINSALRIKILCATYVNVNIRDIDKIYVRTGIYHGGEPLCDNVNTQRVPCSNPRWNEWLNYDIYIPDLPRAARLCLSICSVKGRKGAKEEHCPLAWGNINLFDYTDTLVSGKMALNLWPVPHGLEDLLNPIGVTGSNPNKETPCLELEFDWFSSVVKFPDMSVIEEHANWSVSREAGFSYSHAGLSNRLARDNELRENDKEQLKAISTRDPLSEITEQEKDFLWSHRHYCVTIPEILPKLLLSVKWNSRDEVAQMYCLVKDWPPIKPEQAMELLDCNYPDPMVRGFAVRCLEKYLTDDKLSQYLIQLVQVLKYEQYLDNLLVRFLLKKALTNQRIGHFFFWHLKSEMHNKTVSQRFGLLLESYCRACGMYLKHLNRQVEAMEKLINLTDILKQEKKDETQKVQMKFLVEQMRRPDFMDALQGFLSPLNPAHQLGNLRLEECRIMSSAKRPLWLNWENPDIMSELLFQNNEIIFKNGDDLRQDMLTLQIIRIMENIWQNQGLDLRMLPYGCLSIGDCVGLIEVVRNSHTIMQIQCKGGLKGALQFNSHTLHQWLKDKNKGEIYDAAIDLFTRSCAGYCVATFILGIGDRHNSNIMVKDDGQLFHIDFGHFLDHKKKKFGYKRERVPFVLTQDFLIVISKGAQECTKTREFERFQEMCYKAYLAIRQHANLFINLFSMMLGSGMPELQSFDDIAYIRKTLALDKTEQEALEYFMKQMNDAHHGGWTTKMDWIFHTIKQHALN
Chain of PI3 K Alpha (P27986 whole entry partner): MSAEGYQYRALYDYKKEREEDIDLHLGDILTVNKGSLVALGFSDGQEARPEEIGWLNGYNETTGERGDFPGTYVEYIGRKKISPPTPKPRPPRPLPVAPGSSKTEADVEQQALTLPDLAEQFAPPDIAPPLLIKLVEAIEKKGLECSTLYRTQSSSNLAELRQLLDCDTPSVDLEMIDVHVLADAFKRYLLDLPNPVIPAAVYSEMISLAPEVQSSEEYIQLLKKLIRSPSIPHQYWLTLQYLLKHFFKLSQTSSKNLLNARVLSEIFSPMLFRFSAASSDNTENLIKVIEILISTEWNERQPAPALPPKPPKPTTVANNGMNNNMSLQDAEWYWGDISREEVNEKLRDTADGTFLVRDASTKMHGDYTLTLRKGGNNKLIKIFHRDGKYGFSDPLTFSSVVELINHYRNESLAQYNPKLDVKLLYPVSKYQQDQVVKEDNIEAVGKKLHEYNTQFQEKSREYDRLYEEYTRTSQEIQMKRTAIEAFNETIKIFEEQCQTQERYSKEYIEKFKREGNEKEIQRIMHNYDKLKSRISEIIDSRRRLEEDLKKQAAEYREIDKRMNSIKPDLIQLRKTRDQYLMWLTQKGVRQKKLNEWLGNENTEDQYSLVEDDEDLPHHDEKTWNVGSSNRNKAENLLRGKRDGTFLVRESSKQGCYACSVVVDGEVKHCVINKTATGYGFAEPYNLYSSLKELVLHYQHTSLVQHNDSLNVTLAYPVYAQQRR
Assay [1] deals with pSer473-Akt in A2780 cells. In words: pSer473 Akt assay to monitor PI3K pathway in A2780 cells (MSD). In kind it is cell-based. Particulars: Homo sapiens; A2780 cells; read-out: A2780 pAKT 473 EC50. The procedure, abridged:
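A2780 cells (15,000/well, adhered overnight) treated 1 h at 37 °C with compound, then lysed; pSer473-Akt and total Akt measured by MSD electrochemiluminescence. The pSer473/total Akt ratio gave percent inhibition versus DMSO, from which EC50 was derived.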

SMILES strings stand for the structures. Bounds are passed on as bounds.

T4 sequence (P48736 38-1102): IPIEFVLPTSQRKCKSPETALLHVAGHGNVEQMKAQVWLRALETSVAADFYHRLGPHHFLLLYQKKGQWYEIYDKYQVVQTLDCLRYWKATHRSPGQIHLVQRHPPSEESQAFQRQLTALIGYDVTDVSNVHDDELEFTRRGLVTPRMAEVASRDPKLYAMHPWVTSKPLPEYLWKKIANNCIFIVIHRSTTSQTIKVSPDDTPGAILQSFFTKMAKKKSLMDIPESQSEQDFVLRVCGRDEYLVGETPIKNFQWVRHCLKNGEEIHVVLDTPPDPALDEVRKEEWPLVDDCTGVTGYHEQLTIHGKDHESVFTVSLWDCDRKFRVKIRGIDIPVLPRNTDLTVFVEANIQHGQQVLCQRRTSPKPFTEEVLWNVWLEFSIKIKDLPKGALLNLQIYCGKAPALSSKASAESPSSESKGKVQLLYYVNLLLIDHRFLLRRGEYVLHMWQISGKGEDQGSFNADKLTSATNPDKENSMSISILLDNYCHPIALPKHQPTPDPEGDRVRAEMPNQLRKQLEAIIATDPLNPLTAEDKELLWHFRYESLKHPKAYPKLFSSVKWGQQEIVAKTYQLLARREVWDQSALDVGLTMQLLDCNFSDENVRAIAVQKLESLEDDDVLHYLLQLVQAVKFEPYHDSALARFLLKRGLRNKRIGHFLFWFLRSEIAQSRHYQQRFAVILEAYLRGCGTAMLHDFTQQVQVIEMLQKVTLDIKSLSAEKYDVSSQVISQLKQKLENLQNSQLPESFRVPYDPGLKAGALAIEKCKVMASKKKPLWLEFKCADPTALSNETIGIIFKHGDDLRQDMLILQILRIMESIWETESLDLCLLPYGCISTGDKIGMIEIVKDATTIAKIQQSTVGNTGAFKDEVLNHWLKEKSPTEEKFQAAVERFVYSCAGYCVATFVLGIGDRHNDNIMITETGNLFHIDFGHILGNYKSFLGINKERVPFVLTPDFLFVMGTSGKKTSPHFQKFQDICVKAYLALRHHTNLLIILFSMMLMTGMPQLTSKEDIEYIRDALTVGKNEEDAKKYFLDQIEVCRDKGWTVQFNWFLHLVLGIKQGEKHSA
T1 sequence (P42336 whole entry, canonical isoform): as the sequence (P42336 whole entry) above

What is called Ki is a dissociation constant, usually derived from enzyme kinetics or from competition with a known ligand. A lower Ki goes with a stronger hold on the target. Regarding `CCc1nnn(CCNC(=O)Nc2cn3cc(-c4cnc(N)c(C(F)(F)F)c4)ccc3n2)n1` [Example 3-4, 1-[6-(6-Amino-5-trifluoromethyl-py-ridin-3-yl)-imidazo[1,2-a]pyridin-2-yl]-3-[2-(5-ethyl-tetrazol-2-yl)-ethyl]-urea], the Ki on PI3 kinase isoform alpha, on PI3 kinase isoform delta, at PI3 kinase isoform beta and at human PI3Kγ (GST-p110γ) was under 1 µM throughout.
On to `Nc1ncc(-c2ccc3nc(NC(=O)NCCn4nnc(C5CC5)n4)cn3c2)cc1C(F)(F)F` [Example 3-5, 1-[6-(6-Amino-5-trifluoromethyl-py-ridin-3-yl)-imidazo[1,2-a]pyridin-2-yl]-3-[2-(5-cyclopropyl-tetrazol-2-yl)-ethyl]-urea], for which the Ki on PI3 kinase isoform alpha, on PI3 kinase isoform delta, at PI3 kinase isoform beta and at human PI3Kγ (GST-p110γ) was under 1 µM each time.
As to `CC(C)n1nnc(CCNC(=O)Nc2cn3cc(-c4ccc(N)nc4)ccc3n2)n1` [Example 3-3, 1-[6-(6-Amino-pyridin-3-yl)-imidazo[1,2-a]pyridin-2-yl]-3-[2-(2-isopropyl-2H-tetrazol-5-yl)-ethyl]-urea], the Ki on PI3 kinase isoform alpha is under 10 µM; on PI3 kinase isoform delta, under 1 µM; at PI3 kinase isoform beta, under 1 µM; at human PI3Kγ (GST-p110γ), under 1 µM.
Consider `CC(C)n1nnc(CCNC(=O)Nc2cn3cc(-c4cnc(N)c(C(F)(F)F)c4)ccc3n2)n1` [Example 3-2, 1-[6-(6-Amino-5-trifluoromethyl-py-ridin-3-yl)-imidazo[1,2-a]pyridin-2-yl]-3-[2-(2-isopropyl-2H-tetrazol-5-yl)-ethyl]-urea], for which the Ki at PI3 kinase isoform alpha, at PI3 kinase isoform delta, on PI3 kinase isoform beta and on human PI3Kγ (GST-p110γ) was under 1 µM throughout.
For orientation: EC50 means the concentration needed to bring the measured effect to its halfway point. Usually IC50 stands for the concentration that gives 50% inhibition. For the molecule `NCC(=O)Nc1cn2nc(-c3cnc(N)c(C(F)(F)F)c3)ccc2n1` [Example 77, 2-amino-N-(6-(6-amino-5-(trifluoromethyl)pyridin-3-yl)imidazo[1,2-b]pyridazin-2-yl)acetamide], the EC50 (in the assay on A2780 cells; in assay [1]) was under 1 µM throughout. Further, the IC50 on PI3 K Alpha is under 1 µM.
Consider `CCn1nnc(CCNC(=O)Nc2cn3cc(-c4cnc(N)c(C(F)(F)F)c4)ccc3n2)n1` [Example 3-1, 1-[6-(6-Amino-5-trifluoromethyl-pyridin-3-yl)-imidazo[1,2-a]pyridin-2-yl]-3-[2-(2-ethyl-2H-tetrazol-5-yl)-ethyl]-urea], for which the Ki at PI3 kinase isoform alpha, on PI3 kinase isoform delta, at PI3 kinase isoform beta and on human PI3Kγ (GST-p110γ) was under 1 µM in each case.
Regarding `CC(=O)Nc1nc2ccc(-c3cnc(N)c(C(F)(F)F)c3)cn2c1C#CCN1CCOCC1` [Example 213, N-(6-(6-amino-5-(trifluoromethyl)pyridin-3-yl)-3-(3-morpholino-prop-1-ynyl)imidazo[1,2-a]pyridin-2-yl)acetamide], the EC50 (in the assay with A2780 cells; in assay [1]) was under 10 µM in each case. Also, on PI3 K Alpha, the IC50 is under 1 µM.
As for `Nc1ncc(-c2ccc3nc(NC(=O)CCO)cn3c2)cc1C(F)(F)F` [Example 205, N-(6-(6-amino-5-(trifluoromethyl)pyridin-3-yl)imidazo[1,2-a]pyridin-2-yl)-3-hydroxypropanamide], the EC50 in the assay on A2780 cells was under 10 µM; in assay [1], under 1 µM. Besides, the IC50 on PI3 K Alpha is under 1 µM.
Take `CC(=O)Nc1cn2nc(-c3cnc(N)c(C(=O)NCCNC(=O)OC(C)(C)C)c3)ccc2n1` [Example 103, tert-butyl 2-(5-(2-acetamido-imidazo[1,2-b]pyridazin-6-yl)-2-aminonicotin-amido)ethyl-carbamate]: the EC50 (with A2780 cells; in assay [1]) was under 1 µM in each case. Moreover, on PI3 K Alpha, the IC50 is under 1 µM.
For the molecule `CC(=O)Nc1cn2cc(-c3cnc(N)c(-c4ccccc4N4CCOCC4)c3)ccc2n1` [Example 105, N-(6-(6-amino-5-(2-morpholino-phenyl)pyridin-3-yl)imidazo[1,2-a]pyridin-2-yl)acetamide], the EC50 (in the assay with A2780 cells; in assay [1]) was under 1 µM throughout. The IC50 on PI3 K Alpha is under 1 µM.
With `COCCCOc1nc(-c2ccc3nc(NC(C)=O)cn3c2)cnc1N` [Example 73], the concentration giving a half-maximal response (EC50) (with A2780 cells; in assay [1]) was under 1 µM in each case. Also, the IC50 at PI3 K Alpha is under 1 µM.
In the case of `Nc1ncc(-c2ccc3nc(NC(=O)c4cccnc4)cn3c2)cc1C(F)(F)F` [Example 123, N-(6-(6-amino-5-(trifluoromethyl)pyridin-3-yl)imidazo[1,2-a]pyridin-2-yl)nicotinamide], the EC50 in the assay with A2780 cells is under 10 µM; in assay [1], under 1 µM. Moreover, the IC50 at PI3 K Alpha is under 1 µM.
